Experimental findings from US20240277642A1, “POLYMERIZED VALPROIC ACID AND USE THEREOF” (UNIVERSITY OF TSUKUBA, priority 2021, published 2024) are described below.

This data set can be described thus: toxicity evaluation by changes in body weight. The data set is classed as in vivo, mice. The following applies: intraperitoneal, 500 mg/kg for 5 days; FIG. 6. How it is done: To evaluate the toxicity of VPA and Nano^VPA, VPA and Nano^VPA were intraperitoneally administered at a dose of 500 mg/kg for 5 days, and changes in body weight of the mice were observed.

Consider `CCCC(CCC)C(=O)O` [VPA, valproic acid], for which the “changes in body weight” value is on record as “a decrease in body weight”.
